In US20120196858A1, “METHOD OF PROMOTING APOPTOSIS AND INHIBITING METASTASIS” (Poniard Pharmaceuticals ,Inc., priority 2009, published 2012):

How the values were obtained:
[1] = test system: ID8 ovarian carcinoma cells; assay: Intraperitoneal ID8 ovarian carcinoma tumor growth in C57Bl6 mice; type: in vivo, C57B16 mice
Procedure: Mouse tumor studies: Six to eight week old female C57B16 and BALB/c mice were obtained from Harlan Laboratories (Indianapolis, Ind.) and housed in pathogen-free conditions, according to the guidelines of the Association for the Assessment and Accreditation for Laboratory Animal Care, International. All in vivo studies were carried out under an approved institutional experimental animal care and use protocol. Growing tumor cells were harvested by limited trypsinization, washed in PBS, and counted using a ViCell XR (Beckman) prior to injection. Cell viability as measured by trypan blue exclusion was >95%. For subcutaneous tumor growth, 1×10^6 mCherry-labeled 4T1 cells in 100 μl PBS were injected into the hindflank of Balb/C mice. […] Control animals received PEG400:PBS injections and at 13 days, tumors were imaged in situ using an Olympus OV100 Intravital Fluorescence Molecular Imaging System, tumors were excised and weighed, half was frozen in OCT, and half was solubilized in protein lysis buffer for FAK phosphorylation analyses. For ID8 ovarian carcinoma tumor growth, 0.8 mL of 1×10^7 ID8 cells in PBS was intraperitoneal injected into C57B16 mice. […] Administration continued ad libitum for 30 days after which mice were euthanized, ascites fluid collected, cells obtained by centrifugation (2000 rpm for 5 min), cell volume measured by pipet, and then solubilized in protein lysis buffer for immunoblotting analyses.

FAK = target: T1, FAK (Homo sapiens, UniProt Q05397); assay: Millipore KinaseProfiler selectivity screen; type: biochemical
T1 construct: purchased Millipore (KinaseProfiler service)
Procedure: (§1) Baculovirus FAK catalytic domain and in vitro kinase assays: The FAK catalytic domain region (411-686) was generated by polymerase chain reaction using the primers 5′-[…]-3′ 5′-[…]-3′, cloned into pGEX4T as a fusion with GST, and moved into the pAcG2T baculovirus expression vector (Pharmingen, Baculogold). Virus clones were identified by plaque assays and amplified. For protein expression, SF9 cells were transduced at a multiplicity of infection of 2-5 pfu/cell and cultured at 27° C. for 48 h. Glutathione agarose affinity chromatography were used to purify GST-FAK (411-686) followed by size fractionation using hiload 16/60 Superdex chromatography (GE Healthcare). Protein was concentrated and stored frozen in 50 mM Tris pH 8.0, 150 mM NaCl, 1 mM Na orthovanadate, 0.5 mM EDTA, 0.5 mM EGTA, 0.1% β-mercaptoethanol, and 20% glycerol. Purity was estimated at >90% by SDS-PAGE. GST-FAK in vitro kinase activity was measured and compared to His-tagged FAK 411-686 (Millipore) using the K-LISA screening kit (Calbiochem) and poly(Glu:Tyr) (4:1) copolymer (P0275, Sigma) as a substrate immobilized on microtiter plates. […] Serial diluted compounds at ½-Log concentrations (starting at 1 μM) were tested in triplicate. Substrate phosphorylation was measured using horseradish peroxidase-conjugated anti-pTyr antibodies (PY20, Santa Cruz Biotechnology) with spetrophotometic color quantitation. IC50 values were determined using the Hill-Slope Model. Kinase selectivity profiling was performed by using the KinaseProfiler service (Millipore).

[2] = target: T2, ACK1 (activated Cdc42-associated tyrosine kinase 1) (Homo sapiens, UniProt Q07912); assay: Millipore KinaseProfiler selectivity screen; type: biochemical
T2 construct: purchased Millipore (KinaseProfiler service)
Procedure: as §1

insulin receptor (IR) = target: T3, insulin receptor (IR) (Homo sapiens, UniProt P06213); assay: Millipore KinaseProfiler selectivity screen; type: biochemical; conditions: read-out: kinase inhibition
T3 construct: purchased Millipore (KinaseProfiler service)
Procedure: as §1

Aurora-A = target: T4, Aurora-A (Homo sapiens, UniProt O14965); assay: Millipore KinaseProfiler selectivity screen; type: biochemical; conditions: read-out: kinase inhibition
T4 construct: purchased Millipore (KinaseProfiler service)
Procedure: as §1

[3] = target: T5, Flt3 (FMS-like tyrosine kinase 3) (Homo sapiens, UniProt P36888); assay: Millipore KinaseProfiler selectivity screen; type: biochemical
T5 construct: purchased Millipore (KinaseProfiler service)
Procedure: as §1

[4] = target: T6, Lck (lymphocyte-specific protein tyrosine kinase) (Homo sapiens, UniProt P06239); assay: Millipore KinaseProfiler selectivity screen; type: biochemical
T6 construct: purchased Millipore (KinaseProfiler service)
Procedure: as §1

[5] = test system: interleukin-6 (IL-6) production in 4T1 cells; assay: IL-6 ELISA after TNFα stimulation; type: cell-based, murine; conditions: 0.25 to 1.0 μM; TNFα 10 ng/ml, 24 h
Procedure: After 1 h, recombinant tumor necrosis factor-α (TNFα eBioScience) was added (10 ng/ml) and after 24 h, IL-6 levels in conditioned media were measured using anti-mouse IL-6 ELISA kit (eBioScience).

4T1 cells = assay: Adherent and suspended (non-adherent) cell growth, cell numbers; type: cell-based, murine
Procedure: Anchorage-dependent, spheroid, and soft agar cell growth assays: Cells (2×10^5) were plated per 35 mm well under adherent (tissue culture-treated) and non-adherent conditions (poly-HEMA-coated) in 6-well plates (Costar) in growth media. Between 24 and 168 h, all cells were collected, a single cell suspension was prepared by limited trypsin-EDTA treatment, and viable cells were enumerated by trypan blue staining and counting (ViCell XR, Beckman). For spheroid area determination, cells were imaged after 72 h in phase contrast using an Olympus IX51 microscope. Area was calculated using Image J software (version 1.43). For soft agar assays, 48-well plates were coated with a 1:4 mix of 2% agar (EM Science) in 0.2 ml growth media (bottom layer). 5×10^4 cells were plated per well (in triplicate) in a mixture of 0.3% agar in 0.2 ml growth media (top layer). […] After 10 days, colonies were imaged in phase contrast, enumerated by counting 9 fields (3 fields per well), and total area determined using Image J. For all analyses, experimental points were performed in triplicate and were experiments were repeated at least two times.

[6] = 0.5 mg/ml ad libitum, 30 treatment days

T5 sequence (P36888 27-993): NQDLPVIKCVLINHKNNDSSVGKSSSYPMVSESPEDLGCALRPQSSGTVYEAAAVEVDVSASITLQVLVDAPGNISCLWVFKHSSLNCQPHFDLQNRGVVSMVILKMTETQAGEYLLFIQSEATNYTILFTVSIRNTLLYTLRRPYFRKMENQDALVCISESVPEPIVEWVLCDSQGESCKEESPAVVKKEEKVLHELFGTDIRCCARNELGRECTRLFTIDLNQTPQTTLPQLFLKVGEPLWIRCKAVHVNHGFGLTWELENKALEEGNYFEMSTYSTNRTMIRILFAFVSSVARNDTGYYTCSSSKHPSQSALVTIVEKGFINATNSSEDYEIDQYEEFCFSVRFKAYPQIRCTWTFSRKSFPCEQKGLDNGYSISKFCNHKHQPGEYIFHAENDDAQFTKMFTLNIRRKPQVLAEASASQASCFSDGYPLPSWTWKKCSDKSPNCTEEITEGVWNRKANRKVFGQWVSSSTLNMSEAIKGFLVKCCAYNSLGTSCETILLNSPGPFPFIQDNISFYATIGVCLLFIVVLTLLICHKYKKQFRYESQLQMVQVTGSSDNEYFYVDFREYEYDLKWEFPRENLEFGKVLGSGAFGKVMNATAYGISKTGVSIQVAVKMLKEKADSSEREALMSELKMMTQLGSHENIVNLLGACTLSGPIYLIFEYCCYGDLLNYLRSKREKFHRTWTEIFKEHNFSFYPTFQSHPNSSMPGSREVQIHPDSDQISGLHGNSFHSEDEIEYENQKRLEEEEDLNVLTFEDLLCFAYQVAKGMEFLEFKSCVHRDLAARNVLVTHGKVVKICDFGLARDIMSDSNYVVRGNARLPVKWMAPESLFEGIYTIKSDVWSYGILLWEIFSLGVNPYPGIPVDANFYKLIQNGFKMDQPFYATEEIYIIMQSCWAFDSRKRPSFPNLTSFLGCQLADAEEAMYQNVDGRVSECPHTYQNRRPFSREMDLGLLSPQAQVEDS
T1 sequence (Q05397 whole entry): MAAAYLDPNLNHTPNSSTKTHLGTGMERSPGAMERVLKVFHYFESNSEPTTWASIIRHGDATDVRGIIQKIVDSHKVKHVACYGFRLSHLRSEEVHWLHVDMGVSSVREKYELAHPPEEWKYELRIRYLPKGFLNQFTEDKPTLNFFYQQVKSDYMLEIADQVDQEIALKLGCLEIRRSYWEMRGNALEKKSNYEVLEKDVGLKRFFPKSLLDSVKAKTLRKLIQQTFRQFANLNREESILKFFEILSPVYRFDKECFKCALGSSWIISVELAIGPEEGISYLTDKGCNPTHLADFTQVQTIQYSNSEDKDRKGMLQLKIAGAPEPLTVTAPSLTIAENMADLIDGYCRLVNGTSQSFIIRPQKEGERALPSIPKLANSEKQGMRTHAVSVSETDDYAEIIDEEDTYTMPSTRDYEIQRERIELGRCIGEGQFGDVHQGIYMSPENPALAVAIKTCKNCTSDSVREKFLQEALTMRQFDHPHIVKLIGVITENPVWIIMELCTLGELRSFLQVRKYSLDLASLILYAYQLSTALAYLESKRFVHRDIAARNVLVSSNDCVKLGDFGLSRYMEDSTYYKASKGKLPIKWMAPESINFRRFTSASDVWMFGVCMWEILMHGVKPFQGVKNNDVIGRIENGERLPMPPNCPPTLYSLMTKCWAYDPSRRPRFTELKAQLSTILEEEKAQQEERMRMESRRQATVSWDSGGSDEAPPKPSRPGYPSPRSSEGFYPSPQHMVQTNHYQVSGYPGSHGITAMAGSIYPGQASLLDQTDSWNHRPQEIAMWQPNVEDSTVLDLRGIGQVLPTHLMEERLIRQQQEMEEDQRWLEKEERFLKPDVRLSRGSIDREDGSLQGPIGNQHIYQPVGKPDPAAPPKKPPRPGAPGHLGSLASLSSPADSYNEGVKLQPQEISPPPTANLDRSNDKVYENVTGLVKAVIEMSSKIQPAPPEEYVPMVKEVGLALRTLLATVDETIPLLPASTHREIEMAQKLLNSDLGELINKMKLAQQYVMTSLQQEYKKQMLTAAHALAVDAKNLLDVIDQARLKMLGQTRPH
T4 sequence (O14965 whole entry): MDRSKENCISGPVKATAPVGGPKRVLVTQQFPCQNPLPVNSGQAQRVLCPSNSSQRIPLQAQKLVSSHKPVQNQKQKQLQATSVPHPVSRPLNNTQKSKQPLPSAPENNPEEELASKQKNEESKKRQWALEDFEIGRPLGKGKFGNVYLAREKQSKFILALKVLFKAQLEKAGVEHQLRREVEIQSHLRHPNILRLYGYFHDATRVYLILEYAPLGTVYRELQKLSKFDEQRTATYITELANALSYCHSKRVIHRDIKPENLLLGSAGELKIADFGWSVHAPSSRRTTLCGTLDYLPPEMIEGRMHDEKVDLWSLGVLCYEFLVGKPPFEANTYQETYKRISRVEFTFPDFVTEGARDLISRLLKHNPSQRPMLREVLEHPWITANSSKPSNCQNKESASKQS
T2 sequence (Q07912 whole entry): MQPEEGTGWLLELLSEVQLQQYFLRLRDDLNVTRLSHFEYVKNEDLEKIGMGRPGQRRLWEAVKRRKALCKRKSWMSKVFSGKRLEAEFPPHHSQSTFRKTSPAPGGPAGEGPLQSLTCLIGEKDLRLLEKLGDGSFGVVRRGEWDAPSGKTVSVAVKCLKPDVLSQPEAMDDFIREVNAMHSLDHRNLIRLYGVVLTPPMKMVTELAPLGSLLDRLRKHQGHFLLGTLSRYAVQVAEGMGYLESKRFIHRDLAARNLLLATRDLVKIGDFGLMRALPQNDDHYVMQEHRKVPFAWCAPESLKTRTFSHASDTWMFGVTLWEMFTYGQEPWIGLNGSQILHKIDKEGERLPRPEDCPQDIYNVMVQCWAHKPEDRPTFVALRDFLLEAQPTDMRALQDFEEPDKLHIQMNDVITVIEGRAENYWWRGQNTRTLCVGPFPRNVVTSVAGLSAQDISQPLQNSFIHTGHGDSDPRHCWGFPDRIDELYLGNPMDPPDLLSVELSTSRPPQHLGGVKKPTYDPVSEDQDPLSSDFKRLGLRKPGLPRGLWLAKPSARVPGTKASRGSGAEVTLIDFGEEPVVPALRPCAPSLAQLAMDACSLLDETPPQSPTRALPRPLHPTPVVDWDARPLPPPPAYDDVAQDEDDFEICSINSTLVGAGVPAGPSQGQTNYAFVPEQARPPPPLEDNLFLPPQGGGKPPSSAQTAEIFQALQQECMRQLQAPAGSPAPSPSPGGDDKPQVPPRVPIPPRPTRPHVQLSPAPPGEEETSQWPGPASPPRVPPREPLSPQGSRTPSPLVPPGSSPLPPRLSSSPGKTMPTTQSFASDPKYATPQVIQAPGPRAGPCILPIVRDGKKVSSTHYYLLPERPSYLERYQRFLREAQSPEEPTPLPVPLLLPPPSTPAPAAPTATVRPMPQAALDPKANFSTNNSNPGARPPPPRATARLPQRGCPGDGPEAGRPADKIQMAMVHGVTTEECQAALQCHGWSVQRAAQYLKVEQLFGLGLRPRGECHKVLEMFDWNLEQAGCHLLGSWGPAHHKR
T6 sequence (P06239 whole entry): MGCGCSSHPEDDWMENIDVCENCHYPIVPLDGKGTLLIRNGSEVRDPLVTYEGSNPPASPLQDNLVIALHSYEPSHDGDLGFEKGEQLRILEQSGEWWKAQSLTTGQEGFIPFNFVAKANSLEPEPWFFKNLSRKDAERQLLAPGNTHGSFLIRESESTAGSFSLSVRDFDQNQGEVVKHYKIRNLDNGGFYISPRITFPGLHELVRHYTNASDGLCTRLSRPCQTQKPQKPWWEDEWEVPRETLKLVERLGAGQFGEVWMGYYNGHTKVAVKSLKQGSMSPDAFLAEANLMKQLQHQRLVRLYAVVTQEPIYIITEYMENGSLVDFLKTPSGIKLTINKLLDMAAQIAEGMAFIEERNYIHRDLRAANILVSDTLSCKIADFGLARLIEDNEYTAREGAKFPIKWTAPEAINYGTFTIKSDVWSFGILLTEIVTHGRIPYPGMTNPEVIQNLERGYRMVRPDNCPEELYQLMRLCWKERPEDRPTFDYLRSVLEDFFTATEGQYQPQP

CNC(=O)c1ccccc1Nc1cc(Nc2ccc(N3CCOCC3)cc2OC)ncc1C(F)(F)F [PND-1186]
inhibition of FAK pY397 in ascites cells ([1]; 0.5 mg/ml ad libitum vs 5% sucrose): > 2 fold | ascites-associated cells [1, 6]: lower number of ascites-associated cells | swollen abdomens [1, 6]: did not exhibit swollen abdomens | tumor nodules within the peritoneal space ([1]; 0.5 mg/ml ad libitum, dsRed imaging): significantly fewer tumor nodules | adverse effects and body weight ([1]; 0.5 mg/ml in 5% sucrose ad libitum): No adverse effects and no body weight loss | tumor burden, caspase 3 cleavage, tumor TUNEL staining ([1]; 0.5 mg/ml in drinking water of mice, tumor model not named at the place): decreased tumor burden, increased caspase 3 cleavage, and elevated tumor TUNEL staining | kinase inhibition specificity (FAK; 0.1 μM PND-1186): displayed specificity for FAK as well as Flt3 | remaining kinase activity (FAK; 1 μM PND-1186): negligible activity | inhibition at 1 µM [2]: > 50% | inhibition at 1 µM (insulin receptor (IR)): > 50% | inhibition at 1 µM (Aurora-A): > 50% | kinase inhibition specificity ([3]; 0.1 μM PND-1186): displayed specificity for FAK as well as Flt3 | remaining kinase activity ([3]; 1 μM PND-1186): negligible activity | inhibition at 1 µM [4]: > 50% | TNFα-triggered IL-6 release [5]: inhibited IL-6 release in a dose-dependent manner | reduction of cell number, suspended cells (4T1 cells; 0.1 μM, 72 h, vs DMSO): significant (p<0.001) | cell proliferation, FAK-Cas phosphorylation and cell death (4T1 cells; 100 nM, colonies in soft agar or non-adherent conditions): inhibited cell proliferation, FAK-Cas phosphorylation, and induced cell death | total cell number, adherent cells (4T1 cells; 1.0 μM, 72 h): decreased in number | total cell number, adherent cells (4T1 cells; 0.1 to 1.0 μM, 24 or 48 h): no differences were observed | total cell number, suspended cells (4T1 cells; all concentrations (0.1 to 1.0 μM), 48 h): reduced cell numbers | cytotoxicity to cells in culture (4T1 cells; cells in culture): non-cytotoxic
